For data set [1], the system named is ER+ MCF-7 cells. As to the kind of experiment: Cellular uptake assay in ER+ cells. Format: cell-based, human. How it is done:
One day prior to the experiment, MCF-7 and MDA-MB-231 cells were seeded in 24-well plates (350,000 cells/well). The cells were washed once with cell medium. The cells were incubated with the respective radiotracer in cell medium (510 µL) for 10, 20, 30, 60, 90, 120 min at 37 °C in the absence and presence of estradiol (E2, final concentration of 72 µM). After incubation, the plates were set on ice and washed with ice-cold PBS twice, following cell lysis and detachment with NaOH (0.1 M, 750 µL, 37 °C). The cells were transferred to counting tubes, and the radioactivity was measured using a γ-counter (Wallac Wizard, PerkinElmer, Waltham, MA, USA). The protein concentration of each well was determined in duplicate using Bradford reagent (Bio-Rad Laboratories GmbH, Feldkirchen, Germany). The cellular uptake assay was performed in 2–4 independent experiments, each performed in quadruplicate for each time point.

Data set [2] can be described thus: Stability in human serum and plasma in vitro (radio-HPLC). Format: in vitro ADME. The conditions noted are these: 37 °C; for Stability in human serum and plasma (in words): over 120 min, radio-HPLC; for Stability in Human Serum or Plasma: over 2 h, same for serum and plasma. The method, then:
An aliquot of the formulated tracer solution (40 µL containing approx. 10 MBq in 0.9% NaCl) was incubated with 200 µL of human plasma (Hölzel Diagnostika Handels GmbH, from CosmoBio USA, Carlsbad, CA, USA) or human serum (Biochrom GmbH, Merck KGaA, Darmstadt, Germany), respectively, at 37 °C. After various time points (5–120 min), aliquots (30 µL) were taken and quenched in methanol or 10% TFA (30 µL). The samples were centrifuged for 3 min, and subsequently the supernatants were analyzed by radio-HPLC (Chromolith RP-18e, 100 × 4.6 mm, 10–100% acetonitrile (with 0.1% TFA) in water (with 0.1% TFA) over 5 min, 4 mL/min).

Data set [3] in a line: Determination of logD7.4 (n-octanol/PBS). Format: physicochemical. The conditions noted are these: n-octanol/PBS pH 7.4; mean ± SD, three independent experiments. How it is done:
For the determination of the octanol–water coefficient, an aliquot of the radiotracer was added to PBS (500 µL, pH 7.4) and n-octanol (500 µL) in an Eppendorf tube. The mixture was vortexed and subsequently centrifuged, each for 1 min. Three samples (each 100 µL) were taken from both the PBS and the n-octanol layer and measured using a γ-counter (Wallac Wizard, PerkinElmer, Waltham, MA, USA). The logD7.4 was expressed as log(cpmoctanol/cpmPBS) and reported as mean ± SD. The determination of logD7.4 was performed in three independent experiments, each performed in triplicate.

Data set [4] is described as follows: Plasma protein binding (MicroSpin G-50 columns). Format: in vitro ADME. The conditions noted are these: human plasma, 10 min, 37 °C. How it is done:
MicroSPin G-50 columns (Cytiva, Merck KGaA, Darmstadt, Germany) were preconditioned according to the manufacturer’s protocol and the experiment was performed as follows. In brief, an aliquot of the tracer (1 µL, approx. 250 kBq) was added to NaCl (0.9%, 200 µL, negative control) or human plasma (200 µL) and incubated for 10 min at 37 °C. A sample from the plasma or negative control (40 µL) was carefully added to the resin, and the column was placed in an Eppendorf tube. After centrifugation (2 min, 2000× g), the eluate and the resin were collected separately. Both were measured for radioactivity using a γ-counter (Wallac Wizard, PerkinElmer, Waltham, MA, USA), and the radioactivity eluted from the resin was calculated as a percentage of the total amount of radioactivity. The determination of plasma protein binding was performed twice in duplicate.

The conditions of data set [5]: cited from earlier work.
For data set [6], the system named is MCF-7 and T47D tumors. The conditions noted are these: cited from earlier work.
The subject of data set [7] is MCF-7 tumor-bearing nude mice. Details: method as in PMID 29466767. The conditions noted are these: 60 min p.i., cited from earlier work.
Data set [8] relates to MCF-7 (ER+) breast cancer cells. As to the kind of experiment: Competitive cellular uptake with ^18F-TA-Glyco-EE as radioligand. To be noted: Homo sapiens, MCF7, 1 h, read-out: IC50 for inhibition of cellular uptake of ^18F-TA-Glyco-EE. Format: cell-based. How it is done:
Competitive uptake experiments were performed using ^18F-TA-Glyco-EE as a radioligand. One day prior to the experiment, MCF-7 cells were seeded in 96-well plates (50,000 cells/well). The cell medium was removed, and the respective estradiol derivative, as a competitor of the radioligand, was added in concentrations from 0 to 500 µM in 90 µL cell culture medium each. After ^18F-TA Glyco-EE (10 µL, approx. 1 MBq/well) was added, the incubation proceeded for 60 min at 37 °C. The plate was set on ice and washed with ice-cold PBS, followed by cell lysis and detachment with NaOH (0.1 M, 200 µL, 37 °C). The cells were transferred into counting tubes, and the radioactivity was measured using a γ-counter (Wallac Wizard, PerkinElmer, Waltham, MA, USA). One single experiment was performed in triplicate.

The nature of data set [9]: Hydrolysis of the Si-^18F bond observed on formulation. Format: physicochemical. The conditions noted are these: slightly acidic conditions (HBSS pH 6.4). The method, then: Aiming at a more lipophilic derivatization of EE for comparison to the above-described hydrophilic derivatization, the well-known isotopic ^19F-^18F exchange reaction according to Schirrmacher et al. was applied to the radiosynthesis of ^18F-SiFA-EE, starting from ^19F-SiFA-EE. After cartridge purification and reformulation in HBSS (pH 6.4), ^18F-SiFA-EE was obtained in an AY of 44% (referred to [^18F]fluoride) after a total synthesis time of 27 min, with an Am of up to 28 GBq/µmol. It should be noted here that the obtained Am of ^18F-SiFA-EE was strongly dependent on the starting activity.

Where two headings read alike, the source gives them in different places.

For the molecule `CC12CCC3c4ccc(O)cc4CCC3C1CCC2(O)c1cn(CCOCCOCCOCC[18F])nn1` (stereo not shown) [^18F-PEG-EE], the “Cellular uptake relative to ^18F-Glyco-EE” value in data set [1] (ER+ MCF-7 cells) is “four times higher”. For the same molecule, in data set [1] (after 60 min, 37 °C, absence of E2), the “Cellular uptake in MCF-7 cells” value is listed as 27 %/mg. Moreover, in data set [2], the “Stability in human serum and plasma (in words)” value was “stable in both plasma and serum over 120 min”; the “Stability in Human Serum or Plasma” value is above 99% over 2 h ^2. In addition, the logD7.4 in data set [3] is given as 2.2 ± 0.1. The “Plasma Protein Binding” value in data set [4] was found to be 71 ± 4%.
As for `CC12CCC3c4ccc(O)cc4CCC3C1CCC2(O)c1cn(C2OC(C[18F])C(O)C(O)C2O)nn1` (stereo not shown) [^18F-Glyco-EE], in [1] (after 90 min, 37 °C, absence of E2), the “Total cellular uptake in MCF-7 cells” value is 7 %/mg. In addition, in [2], the “Stability in human serum and plasma (in words)” value was “stable in both plasma and serum over 120 min”; the “Stability in Human Serum or Plasma” value was above 99% over 2 h ^2. This molecule also gave a logD7.4 in data set [3] of 1.7 ± 0.1.
For the molecule `CC12CCC3c4ccc(O)cc4CCC3C1CC([18F])C2O` (stereo not drawn) [FES, 16α-[^18F]fluoroestradiol], the logD7.4 in data set [5] is 2.5. Moreover, the “Uptake in MCF-7 and T47D tumors” value in [6] is below 0.4 %ID/g.
With `CC12CCC3c4ccc(O)cc4CCC3C1CCC2(O)c1cn(CCOCCOCC[18F])nn1` (stereo not shown) [^18F-FETE], the Tumor uptake in [7] (MCF-7 tumor-bearing nude mice) is reported as 4 %ID/g. For the same molecule, the “Tumor uptake after fulvestrant pretreatment” value in [7] (MCF-7 xenografts) was 1.5 %ID/g.
On to `C[C@]12CC[C@@H]3c4ccc(O)cc4CC[C@H]3[C@@H]1CC[C@@]2(O)c1cn(CCOCCOCCOCCF)nn1` [PEG-EE], for which, in data set [8], the IC50 (usually the concentration at which inhibition is half-maximal) was 1270 µM.
In the case of `C[C@]12CC[C@@H]3c4ccc(O)cc4CC[C@H]3[C@@H]1CC[C@@H]2O` [E2, 17β-estradiol, reference compound], the IC50 in data set [8] (MCF-7 cells, 60 min, 37 °C, single experiment in triplicate) is 56 µM.
`CC12CCC3c4ccc(O)cc4CCC3C1CCC2(O)c1cn(Cc2ccc([Si]([18F])(C(C)(C)C)C(C)(C)C)cc2)nn1` (stereo not shown) [^18F-SiFA-EE]: in [9], the “Hydrolytic stability of the Si-^18F bond” value is “highly amenable to hydrolysis of the Si-^18F bond”.
On to `CC(=O)OC1C(CF)OC(n2cc(C3(O)CCC4C5CCc6cc(O)ccc6C5CCC43C)nn2)C(OC(C)=O)C1OC(C)=O` (stereo not shown) [TA-Glyco-EE], for which the IC50 in [8] turned out to be 194 µM.
As for `C#C[C@]1(O)CC[C@H]2[C@@H]3CCc4cc(O)ccc4[C@H]3CC[C@@]21C` [EE, 17α-ethinylestradiol], in data set [5], the “calculated logKow” value is listed as 3.7.

These data come from publication PMC11311842, “Radiosynthesis and Preclinical Evaluation of ^18F-Labeled Estradiol Derivatives with Different Lipophilicity for PET Imaging of Breast Cancer” (Cancers, 2024).
